Experimental data: patent US20090111820A1, “FUSED PYRROLIDINE 1,2,4-TRIAZOLE DERIVATIVES AS MODULATORS OF MGLUR5” (priority 2007, published 2009)

Columns and labels:
human mGluR5d = target: T1, human mGluR5d (Homo sapiens, UniProt P41594); assay: FLIPR assay, mGluR5 antagonism (intracellular calcium mobilization); type: cell-based; conditions: cells expressing human mGluR5d; fluo-3 calcium signal; read-out: FLIPR hmGluR5d
T1 construct: expressed in transfected cells; It is kept under hygromycin B and Zeocin selection; The separate IP3 assay names GHEK cells
T1 sequence (P41594 21-942 isoform P41594-3 limits assumed): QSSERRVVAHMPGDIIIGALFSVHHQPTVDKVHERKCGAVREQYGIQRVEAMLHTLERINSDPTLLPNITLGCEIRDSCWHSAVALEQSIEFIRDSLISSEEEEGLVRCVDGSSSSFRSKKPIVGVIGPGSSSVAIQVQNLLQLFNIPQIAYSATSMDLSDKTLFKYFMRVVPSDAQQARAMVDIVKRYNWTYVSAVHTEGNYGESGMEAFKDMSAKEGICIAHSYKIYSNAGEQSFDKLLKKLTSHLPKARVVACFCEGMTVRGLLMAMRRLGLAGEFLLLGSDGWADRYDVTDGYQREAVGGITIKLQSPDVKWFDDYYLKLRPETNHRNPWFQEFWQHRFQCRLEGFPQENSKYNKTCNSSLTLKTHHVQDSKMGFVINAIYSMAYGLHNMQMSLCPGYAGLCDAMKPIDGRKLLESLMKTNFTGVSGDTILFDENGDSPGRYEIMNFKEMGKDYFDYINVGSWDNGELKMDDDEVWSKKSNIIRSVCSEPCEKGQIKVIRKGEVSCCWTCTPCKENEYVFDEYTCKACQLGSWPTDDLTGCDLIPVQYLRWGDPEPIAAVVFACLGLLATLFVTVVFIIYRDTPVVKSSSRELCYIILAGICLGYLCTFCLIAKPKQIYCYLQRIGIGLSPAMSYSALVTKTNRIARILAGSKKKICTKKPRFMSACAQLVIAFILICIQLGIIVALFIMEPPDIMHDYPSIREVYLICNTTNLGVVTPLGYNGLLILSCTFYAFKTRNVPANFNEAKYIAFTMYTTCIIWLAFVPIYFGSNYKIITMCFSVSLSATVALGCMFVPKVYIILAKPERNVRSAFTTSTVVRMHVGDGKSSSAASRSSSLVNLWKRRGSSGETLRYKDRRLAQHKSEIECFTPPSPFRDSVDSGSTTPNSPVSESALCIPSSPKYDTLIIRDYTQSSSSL
Text: Functional Assessment of mGluR5 Antagonism in Cell Lines Expressing mGluR5D
The properties of the compounds of the invention can be analyzed using standard assays for pharmacological activity. Examples of glutamate receptor assays are well known in the art as described in for example Aramori et al., Neuron 8:757 (1992), Tanabe et al., Neuron 8:169 (1992), Miller et al., J. Neuroscience 15: 6103 (1995), Balazs, et al., J. Neurochemistry 69:151 (1997). The methodology described in these publications is incorporated herein by reference. Conveniently, the compounds of the invention can be studied by means of an assay (FLIPR) that measures the mobilization of intracellular calcium, [Ca^2+], in cells expressing mGluR5 or another assay (IP3) that measures inositol phosphate turnover.
Cells expressing human mGluR5d as described in WO97/05252 cultured in a mixture of high glucose DMEM with Glutamax (31966-021) (500 mL), 10% dialyzed fetal bovine serum (Hyclone #SH30079.03) (56 mL), 200 μg/mL Hygromycin B (Invitrogen 45-0430, 50 mg/mL)(2.2 mL), 200 μg/mL Zeocin (Invitrogen #R250-01; 100 mg/mL)(1.1 mL) are seeded at a density of 100,000 cells per well on collagen coated clear bottom 96-well plates with black sides and cells were allowed to adhere over night before experiments. All assays are done in a buffer containing 146 mM NaCl, 5 mM KCl, 1 mM MgCl2, 1 mM CaCl2, 20 mM HEPES, 1 mg/mL glucose and 1 mg/mL BSA Fraction IV (pH 7.4). Cell cultures in the 96-well plates are loaded for 60 minutes in the above mentioned buffer containing 6 μM of the acetoxymethyl ester form of the fluorescent calcium indicator fluo-3 (Molecular Probes, Eugene, Oreg.) in 0.025% pluronic acid (a proprietary, non-ionic surfactant polyol -CAS Number 9003-11-6). Following the loading period the fluo-3buffer is removed and replaced with fresh assay buffer. FLIPR experiments are done using a laser setting of 0.700 W and a 0.4 second CCD camera shutter speed with excitation and emission wavelengths of 488 nm and 562 nm, respectively. Each experiment is initiated with 160 μl of buffer present in each well of the cell plate. A 40 μl addition from the antagonist plate was followed by a 50 μL addition from the agonist plate. A 30 minutes, in dark at 25° C., interval separates the antagonist and agonist additions. The fluorescence signal is sampled 50 times at 1-second intervals followed by 3 samples at 5-second intervals immediately after each of the two additions. Responses are measured as the difference between the peak heights of the response to agonist, less the background fluorescence within the sample period. IC50 determinations are made using a linear least squares fitting program.

[1] = Determination of brain to plasma ratio in rat; type: in vivo; conditions: brain and plasma, female Sprague Dawley rats, read-out: Brain/Plasma Ratio of compound in Rat
Description: Determination of Brain to Plasma Ratio in Rat
Brain to plasma ratios are estimated in female Sprague Dawley rats. The compound is dissolved in water or another appropriate vehicle. For determination of brain to plasma ratio the compound is administrated as a subcutaneous, or an intravenous bolus injection, or an intravenous infusion, or an oral administration. At a predetermined time point after the administration a blood sample is taken with cardiac puncture. The rat is terminated by cutting the heart open, and the brain is immediately retained. The blood samples are collected in heparinized tubes and centrifuged within 30 minutes, in order to separate the plasma from the blood cells. The plasma is transferred to 96-well plates and stored at −20° C. until analysis. The brains are divided in half, and each half is placed in a pre-tarred tube and stored at −20° C. until analysis. Prior to the analysis, the brain samples are thawed and 3 mL/g brain tissue of distilled water is added to the tubes. The brain samples are sonicated in an ice bath until the samples are homogenized. Both brain and plasma samples are precipitated with acetonitrile. After centrifugation, the supernatant is diluted with 0.2% formic acid. Analysis is performed on a short reversed-phase HPLC column with rapid gradient elution and MSMS detection using a triple quadrupole instrument with electrospray ionisation and Selected Reaction Monitoring (SRM) acquisition. Liquid-liquid extraction may be used as an alternative sample clean-up. The samples are extracted, by shaking, to an organic solvent after addition of a suitable buffer. An aliquot of the organic layer is transferred to a new vial and evaporated to dryness under a stream of nitrogen. After reconstitution of the residuals the samples are ready for injection onto the HPLC column.

| Compound | IC50 (human mGluR5d) | Kp [1] |
| --- | --- | --- |
| Cc1cccc(-c2cc([C@H]3C[C@H]4C[C@H]4N3c3nnc(-c4ccn(C)c(=O)c4)n3C)no2)c1 [Example 13.1, 1-Methyl-4-(4-methyl-5-{(1R,3R,5R)-3-[5-(3-methylphenyl)isoxazol-3-yl]-2-azabicyclo[3.1.0]hex-2-yl}-4H-1,2,4-triazol-3-yl)pyridin-2(1H)-one] | 73 nM | 0.01 |
| Cc1cccc(-c2cc([C@H]3C[C@H]4C[C@H]4N3c3nnc(-c4cc[nH]c(=O)n4)n3C)no2)c1 [Example 13.2, 4-(4-Methyl-5-{(1R,3R,5R)-3-[5-(3-methylphenyl)isoxazol-3-yl]-2-azabicyclo[3.1.0]hex-2-yl}-4H-1,2,4-triazol-3-yl)pyrimidin-2(1H)-one] | 131 nM | – |
| Cc1cccc(-c2cc([C@H]3C[C@H]4C[C@H]4N3c3nnc(-c4cn[nH]c(=O)c4)n3C)no2)c1 [Example 13.3, 5-(4-Methyl-5-{(1R,3R,5R)-3-[5-(3-methylphenyl)isoxazol-3-yl]-2-azabicyclo[3.1.0]hex-2-yl}-4H-1,2,4-triazol-3-yl)pyrimidin-3(2H)-one] | 71 nM | – |
| Cn1c(-c2ccn(C)c(=O)c2)nnc1N1[C@@H](c2cc(-c3cccc(Cl)c3)on2)C[C@H]2C[C@H]21 [Example 13.4, 4-(5-{(1R,3R,5R)-3-[5-(3-Chlorophenyl)isoxazol-3-yl]-2-azabicyclo[3.1.0]hex-2-yl}-4-methyl-4H-1,2,4-triazol-3-yl)-1-methylpyridin-2(1H)-one] | 39 nM | < 0.01 |
| Cn1c(-c2ccc(C(N)=O)cc2)nnc1N1[C@@H](c2cc(-c3cccc(Cl)c3)on2)C[C@H]2C[C@H]21 [Example 13.5, 4-(5-{(1R,3R,5R)-3-[5-(3-Chlorophenyl)isoxazol-3-yl]-2-azabicyclo[3.1.0]hex-2-yl}-4-methyl-4H-1,2,4-triazol-3-yl)benzamide] | 14 nM | – |
| Cn1c(-c2cn[nH]c(=O)c2)nnc1N1[C@@H](c2cc(-c3cccc(Cl)c3)on2)C[C@H]2C[C@H]21 [Example 13.6, 5-(5-{(1R,3R,5R)-3-[5-(3-Chlorophenyl)isoxazol-3-yl]-2-azabicyclo[3.1.0]hex-2-yl}-4-methyl-4H-1,2,4-triazol-3-yl)pyridazin-3(2H)-one] | 32 nM | < 0.01 |
| Cn1c(-c2ccn(C)c(=O)c2)nnc1N1C[C@H]2C[C@H]2[C@@H]1c1cc(-c2cccc(Cl)c2)on1 [Example 13.8, 4-(5-{(1R,2R,5S)-2-[5-(3-Chlorophenyl)isoxazol-3-yl]-3-azabicyclo[3.1.0]hex-3-yl}-4-methyl-4H-1,2,4-triazol-3-yl)-1-methylpyridin-2(1H)-one] | 51 nM | – |
| Cn1c(-c2cn[nH]c(=O)c2)nnc1N1C[C@H]2C[C@H]2[C@@H]1c1cc(-c2cccc(Cl)c2)on1 [Example 13.9, 5-(5-{(1R,2R,5S)-2-[5-(3-Chlorophenyl)isoxazol-3-yl]-3-azabicyclo[3.1.0]hex-3-yl}-4-methyl-4H-1,2,4-triazol-3-yl)pyridazin-3(2H)-one] | 46 nM | – |
